Like-named read-outs stand apart in the source and are kept apart here.
Key:
[1] = tested on: various Anopheles and Aedes mosquitos; assay: Membrane feeding, all Anopheles and Aedes strains tested; type: in vivo; conditions: read-out: IC50 values, range against all strains tested
Method: (§1) Isoxazoline compounds fluralaner or afoxolaner were reconstituted in 50% human serum and 50% red blood cells and administered to adult Anopheles stephensi mosquitos via standard membrane feeding. Lethality was assessed 1, 2 or 8 days after exposure. FIG. 2A represents a plot of viable Anopheles stephensi versus fluralaner concentration at each day of assessment. FIG. 2B represents a plot of viable Anopheles stephensi versus afoxolaner concentration at each day of assessment. […] The IC50 values of each compound for Anopheles death were determined by logistic regression using a least squares method to find the best fit and are shown in Table 1. IC50 values were calculated by applying a four-parameter logistic regression model using a least-squares method to find the best fit using the Graphpad Prism 5.0 software package.

[2] = tested on: Anopheles gambiae (Tiassalé); assay: Membrane feeding, Anopheles gambiae Tiassalé strain (rdl mutation); type: in vivo; conditions: for IC50: Anopheles gambiae, read-out: IC50 [95% CI]
Method: Mosquito colonies utilized in the examples were generally maintained as described: The colony of Anopheles stephensi (Sind-Kasur Nijmegen strain) was maintained at the Radboud University Medical Center, Nijmegen, The Netherlands, by 30° C. and 70-80% humidity and on a 12/12 hour day/night cycle. The Anopheles gambiae strains Kisumu and Tiassalé and the Aedes aegypti strains New Orleans and Cayman were reared at the Liverpool Insect Testing Establishment, Liverpool, UK. Kisumu is an insecticide susceptible lab strain. New Orleans was originally colonized by the Centers for Disease Control and Prevention. The Tiassalé strain was colonized from Southern Cote D'Ivoire where resistance to all classes of insecticide is found and the Cayman strain was colonized from Grand Cayman, where Aedes aegypti are highly resistant to DDT and pyrethroid insecticides. Both resistant strains are routinely selected with insecticides to ensure the maintenance of resistance, 0.75% permethrin for Cayman and 0.05% deltamethrin for Tiassalé, and profiled for resistance to a range of insecticides, including 4% dieldrin, to which Tiassalé is resistant but Cayman is susceptible.
as §1
The membrane feeding experiment described was repeated using the insecticide dieldrin on two strains of Anopheles gambiae: Kisumu and Tiassale. The Tiassale strain has a mutation in the resistance to dieldrin (rdl) locus, which codes for γ-aminobutyric acid (GABA) receptor. The Tiassale strain was resistant to pyrethroids, carbamate, DDT and dieldrin (knockdown resistance (kdr), Ace and rdl mutations). The Kisumu strain was susceptible to killing by all tested insecticides. FIG. 3A represents a plot of percentage survival of Kisumu and Tiassale strains of Anopheles gambiae versus dieldrin concentration. FIG. 3B represents a plot of survival of the Kisumu and Tiassale strains at 10 μM dieldrin. […] Both figures indicate that the dose-response in systemic feed experiment performed here in allows for identification of a resistance profile.
The feed experiment in Anopheles gambiae was repeated using the isoxazoline compounds fluralaner and afoxolaner to determine if the rdl mutation confers resistance to the isoxazoline insecticides. Isoxazoline insecticides target Rdl, but in a location thought to be different from dieldrin. The mosquitos were fed fluralaner or afoxolaner at various concentrations and lethality was assessed after 24 hours. FIG. 4A represents a plot of percentage survival of Kisumu and Tiassale strains of Anopheles gambiae versus fluralaner concentration. FIG. 4B represents a plot of percentage survival of Kisumu and Tiassale strains of Anopheles gambiae versus afoxolaner concentration.

[3] = tested on: Aedes aegypti (Cayman); assay: Membrane feeding, Aedes aegypti Cayman strain; type: in vivo; conditions: read-out: IC50 [95% CI]
[4] = tested on: Anopheles mosquitos; assay: Lethal duration estimated by extrapolating published Beagle dog PK curves to killing concentrations
Source text: Data for fluralaner in Beagle dogs was obtained from Walther et al., Parasites & Vectors 8:508. Data from afoxolaner in Beagle dogs was obtained from Letendre et al., Veterinary Parasitology, 201, 190-197.
The lethal duration of fluralaner and afoxolaner was estimated by extrapolating pharmacokinetic curves from published studies in Beagle dogs to the killing concentrations determined by the membrane feeding studies described in Example 2. Data for fluralaner in Beagle dogs was obtained from Walther et al., Parasites & Vectors 8:508. Data from afoxolaner in Beagle dogs was obtained from Letendre et al., Veterinary Parasitology, 201, 190-197. A mathematical model was used to estimate the impact of these compounds on Anopheles stephensi mosquito survival.

[5] = Further in vitro degradation assay, dog primary hepatocytes
Method: In a further assay, isoxazolines (fluralaner and afoxolaner) and control compounds (7-Ethoxycoumarin and 7-Hydroxycoumarin [Sigma]) were dissolved in DMSO at 10 and 30 mM respectively, then diluted first 20-fold with 45% methanol in water and a further 10-fold in pre-warmed Williams' Medium E. Cryopreserved human, dog and rat hepatocytes (In Vitro Technologies) were thawed, isolated by percoll gradient and suspended in Williams' Medium E. Cells were then dispensed into the wells of 96-well plates containing 10 μL of diluted compounds, to reach a final concentration of 0.5×10^6 cells/mL and 1 μM of isoxazolines or 3 μM of control. After an incubation at 37° C. of 0, 15, 30, 60 or 90 minutes, the reaction was stopped with acetonitrile. The samples were then shaken for 10 minutes at 500 rpm and centrifuged at 3220 g for 20 minutes. Supernatants were transferred and stored at 4° C. until LC-MS-MS analysis.

[6] = Plasma stability, human; type: in vitro ADME; conditions: human (hu)
Source text: (§2) The stability of compounds in mouse (ms), rat (r), dog (d), cynomolgus monkey (cy), and human (hu) plasma is shown in Table 10 by the percentages of compounds remaining at two hours.

[7] = Plasma stability, cynomolgus monkey; type: in vitro ADME; conditions: cynomolgus monkey (cy)
Source text: as §2

[8] = Dog pharmacokinetics, single oral dose; type: in vivo; conditions: level at Day 45
[9] = Plasma stability, dog; type: in vitro ADME; conditions: dog (d)
Source text: as §2

[10] = Plasma stability, mouse; type: in vitro ADME; conditions: mouse (ms)
Source text: as §2

[11] = Plasma stability, rat; type: in vitro ADME; conditions: rat (r)
Source text: as §2

[12] = Brain homogenate binding assay (equilibrium dialysis)
Method: Briefly, frozen tissue homogenate (homogenized with buffer at a certain volume ratio) was used as a test matrix. The tissue homogenate was purchased from Bioreclamation (Hicksville, N.Y., USA) or prepared by WuXi AppTec.
Isoxazoline compounds were spiked into blank tissue homogenate at the test concentration. Triplicate samples were used.
An appropriate volume of spiked tissue sample was removed before incubation for recovery calculation. An aliquot (e.g., 150 μL) of matrix sample was added to the donor side of the chamber (donor chamber) in a dialyzer plate (HTD dialysis device or RED device) and a certain amount of dialysis buffer was loaded to the other side of the chamber (receiver chamber). Triplicate incubations were performed (or other replicate number according to specific requirement).
The dialyzer plate was placed into a humidified incubator with 5% CO2 and incubated at 37° C. for appointed time (the general incubation time is 4-6 h).
After incubation, samples were removed from the donor side as well as the receiver side.
The samples were matched with appropriate amount of the opposite blank matrix (tissue homogenate or buffer). […]
The samples were analyzed by LC-MS/MS. Test compound concentrations in matrix and buffer samples were assessed based on the peak area ratios (PAR) of analyte/internal standard (no standard curve).

Cc1cc(C2=NO[C@](c3cc(Cl)cc(Cl)c3)(C(F)(F)F)C2)ccc1C(=O)NCC(=O)NCC(F)(F)F [Fluralaner, fluralaner]
IC50 ([1]; twenty-four hours after the blood meal): 33 to 56 nM
IC50 ([2]; 24 hours after the blood meal, Tiassalé strain): 33.2 nM
activity against strain carrying the resistance-to-dieldrin (rdl) mutation (in words) ([2]; Tiassalé strain): fully active
IC50 ([3]; 24 hours after the blood meal, Cayman strain): 35.8 nM
time the concentration is above the level lethal to Anopheles mosquitos ([4]; dose of 56 mg/kg): 72 days
half-life ([5]; cryopreserved hepatocytes): > 217 min
hepatocyte CLint ([5]; cryopreserved hepatocytes): < 6.4 µL/min/1e6 cells

O=C(CNC(=O)c1ccc(C2=NO[C@](c3cc(Cl)cc(C(F)(F)F)c3)(C(F)(F)F)C2)c2ccccc12)NCC(F)(F)F (racemic) [Afoxolaner, afoxolaner]
Plasma stability % remaining @ 2 h [6]: 84% (hu)
Plasma stability % remaining @ 2 h [7]: 84% (cy);
IC50 [1]: 90 to 107 nM
IC50 ([2]; 24 h): 101 nM
activity against strain carrying the resistance-to-dieldrin (rdl) mutation (in words) ([2]; Tiassalé strain): fully active
Dog PK (PO) [8]: ~600 nM at Day 45
IC50 ([3]; 24 h): 90.2 nM
Plasma stability % remaining @ 2 h [9]: 100% (d);
time the concentration is above lethal level ([4]; 1 mg/kg): 43 days
time the concentration is above lethal level ([4]; 4 mg/kg): 72 days
half-life ([5]; hepatocytes): > 217 min
hepatocyte CLint ([5]; hepatocytes): < 6.4 µL/min/1e6 cells
Plasma stability % remaining @ 2 h [10]: 83% (ms);
Plasma stability % remaining @ 2 h [11]: 61% (r);

O=C(CNC(=O)c1ccc(C2=NO[C@@](c3cc(Cl)cc(C(F)(F)F)c3)(C(F)(F)F)C2)c2ccccc12)NCC(F)(F)F [(S)-afoxolaner]
Brain homogenate % binding [12]: >99.9%

O=C(CNC(=O)c1ccc(C2=NO[C@@](c3cc(Cl)cc(Cl)c3)(C(F)(F)F)C2)c2ccccc12)NCC(F)(F)F [(S)-4-(5-(3,5-dichlorophenyl)-5-(trifluoromethyl)-4,5-dihydroisoxazol-3-yl)-N-(2-oxo-2-((2,2,2-trifluoroethyl)amino)ethyl)-1-naphthamide]
Brain homogenate % binding [12]: >99.9%

From patent publication US20200061026A1, “METHODS AND COMPOSITIONS FOR PREVENTING VECTOR-BORNE DISEASE TRANSMISSION” (The Scripps Research Institute, priority 2016, published 2020)
